Experimental data reported in patent publication US9827224B2, “Methods and compositions for ameliorating pancreatic cancer” (University of South Alabama, priority 2010, dated 2017).
One block for each molecule: values may come before it.

How the values were obtained:
[1] = test system: Panc1 and MiaPaCa cells; assay: Cell viability assay (Vybrant MTT cell proliferation assay), results stated for both cell lines together; format: cell-based, Human; details: for effect on CXCL12-induced chemo-resistance (gemcitabine): pre-treatment 1 h (AMD3100 5 μg/mL, LY294002 20 μM, PD98059 25 μM), then gemcitabine + CXCL12
Method: (§1) After 72 h of treatment, cell growth was determined by using Vybrant MIT cell proliferation assay. Growth was calculated as percent (%)=[{(A/B)−1}×100], where A and B are the absorbance of treatment and control cells, respectively. To examine the effect of CXCR4 targeting, cells were pre-incubated with small molecule CXCR4 antagonist, AMD3100 (5 μg/mL), for 1 h. To delineate the role of Akt and ERK pathways, cells were pretreated for 1 h with LY294002 (20 μM) and PD98059 (25 μM), respectively.

[2] = test system: Akt; assay: Western blot of Akt activation (total and phospho-forms) in Panc1 and MiaPaCa cells; format: cell-based, Human
Method: (§2) Cells were processed for protein extraction and western blotting using standard procedures. Briefly, cells were washed twice with PBS and scraped into NP-40 lysis buffer containing protease and phosphotase inhibitors. Cell lysates were passed through a needle syringe to facilitate the disruption of the cell membranes and were centrifuged at 14,000 rpm for 20 min at 4° C., and supematants were collected. Proteins (10-50 μg) were resolved by electrophoresis on 10% SDS-PAGE, transferred onto polyvinylidene difluoride (PVDF) membrane and subjected to standard immunodetection procedure using specific antibodies: AKT, pAKT ERK1/2, pERK1/2, Bcl-2, Bcl-xL, FAk, pFAk, Survivin, β-catenin and BAD (1:1000), pBAD (1:500), Notch-1 (1:200) and β-actin (1:20000). All secondary antibodies were used at 1:2500 dilutions. Blots were processed with ECL Plus Western Blotting detection kit and the signal detected using an LAS-3000 image analyzer (Fuji Photo Film Co., Tokyo, Japan).

[3] = test system: ERK; assay: Western blot of ERK activation (total and phospho-forms) in Panc1 and MiaPaCa cells; format: cell-based, Human; details: for effect on CXCL12-induced activation of ERK pathway: pre-treatment 1 h (AMD3100, LY294002 20 μM, PD98059 25 μM), 15 min post-CXCL12, Panc1 and MiaPaCa
Method: as §2

[4] = human volunteers, intra-venous injection; cited from earlier work
[5] = test system: MiaPaCa cells; assay: Cell viability assay (MTT), gemcitabine cytotoxicity; format: cell-based, Human; details: 5.0 μM gemcitabine, 72 h, serum-containing media, compared to untreated cells
Method: as §1

[6] = test system: Panc1 cells; assay: as above; format: cell-based, Human; details: 5.0 μM gemcitabine, 72 h, serum-containing media, compared to untreated cells
Method: as §1

[7] = test system: NF-κB; assay: NF-κB transcriptional activity assay (luciferase reporter); format: cell-based, Human; details: 24 h
Method: To measure the LEF/TCF and NF-κB transcriptional activity, pancreatic cancer cells (1×10^5) were seeded in 12-well plates. After 24 h incubation, cells were transiently transfected with the luciferase promoter-reporter constructs (TOP flash, FOPflash or pGL4.32[luc2P/NF-kB-RE/Hygro]. TOPflash reporter plasmid contains three copies of the Tcf/Lef sites upstream of a thymidine kinase (TK) promoter and the Firefly luciferase gene, while in FOPflash, Tcf/Lef sites are mutated and therefore it serves as a control for measuring nonspecific activation of the reporter. Cells were also co-transfected with a reporter plasmid, containing Renilla reniformis luciferase gene downstream of the TK promoter, to control for the transfection efficiency. All transfections were performed using FuGene as a transfection reagent according to the manufacturers' recommendations. Cells were treated with CXCL12 (100 ng) 24 h post TOPflash/FOPflash or pGLA.32[luc2P/NF-kB-RE/Hygro] transfection, and after the next 24 h, total protein was isolated in passive lysis buffer. Luciferase activity was measured using the Dual Luciferase Assay System. All experiments were done in triplicate and relative luciferase activity reported as the fold induction after normalization for transfection efficiency.

[8] = test system: FAK; assay: Western blot of FAK activation in Panc1 and MiaPaCa cells; format: cell-based, Human; details: CXCL12 100 ng/mL, 5-30 min
Method: as §2

[9] = test system: BAD; assay: Western blot of BAD phosphorylation in Panc1 and MiaPaCa cells; format: cell-based, Human; details: CXCL12-treated Panc1 and MiaPaCa
Method: as §2

[10] = test system: Bcl-2, Bcl-xL, Notch-1 and survivin; assay: Western blot of survival protein expression in pancreatic cancer cells; format: cell-based, Human; details: CXCL12-treated pancreatic cancer cells
Method: as §2

[11] = test system: Panc1 and MiaPaCa cells; assay: DNA fragmentation assay; format: cell-based, Human; details: gemcitabine 5 and 10 μM + CXCL12 100 ng/mL, 48 h, compared to gemcitabine alone
Method: Cells were washed twice with phosphate buffer saline (PBS) and DNA was extracted using DNAzol reagent. 2 μg of isolated DNA was resolved on 1.0% agarose gel containing ethidium-bromide (EtBr) and observed under a LAS-3000 image analyzer (Fuji Photo Film Co.).

[12] = test system: activated caspases; assay: Measurement of apoptosis in situ (CaspACE FITC-VAD-FMK); format: cell-based, Human; details: gemcitabine 5 μM + CXCL12 100 ng/mL, compared to gemcitabine alone
Method: Apoptosis was detected by staining the cells with CaspACE FITC-VAD-FMK solution in PBS for 2 h at 37° C. CaspACE™ FITC-VAD-FMK In Situ Marker is a fluorescent analog of the pan-caspase inhibitor Z-VAD-FMK (carbobenzoxy-valyl-alanylaspartyl-[O-methyl]-fluoromethylketone), which irreversibly binds to activated caspases and is a surrogate for caspase activity in situ. Following staining with CaspACE FITC-V AD-FMK, cells were fixed with 4% paraformaldehydede at room temperature and washed with PBS. The bound fluorescent marker was detected under a Nikon Eclipse TE2000-U fluorescent microscope (Nikon Instruments Inc, Melville, N.Y.).

[13] = test system: SHH; assay: CXCL12-induced sonic hedgehog (SHH) expression by Q-RT-PCR and Western blot; format: cell-based, Human; details: CXCL12, 0-48 hours, Panc1 and MiaPaCa
Method: Panc1 and MiaPaCa cells were treated with CXCL12 and expression of SHH was measured by Q-RT-PCR and Western blot analysis.
Q-RT-PCR: Pancreatic cancer cells (Panc1 and MiaPaCa) were treated with CXCL12 for different time point (0, 4, 8, 24, 48 hours) for Q-RT-PCR analysis. To confirm the induced expression of sonic hegedehog (SHH), reverse transcriptase based-PCR (RT-PCR) analysis was performed, using SHH-specific primers. Briefly, cDNA was synthesized from 5 μg total RNA using SuperScript™ II Reverse Transcriptase (Invitrogen) and oligo(dT) primer. Two micro liter of first strand cDNA (1:10 dilution) was amplified using the SHH specific and GAPDH specific primers control. Amplified products were resolved through a 1.5% agarose gel containing ethidium bromide and analyzed using an Alpha Imager gel documentation system (Alphalnnotech, San Leandro, Calif.).
Immunoblot analyses: NP-40 lysis buffer containing protease and phosphatase inhibitors (Roche Diagnostics. 50 μg protein was resolved by SDS-PAGE (8-12%). The primary antibodies were: anti-sonic hedgehog (SHH, 1:2000, rabbit monoclonal, Millipore. Secondary antibody (Santa Cruz Biotechnology) was horseradish peroxidase (HRP)-conjugated and was used a 1:2000 dilution. Bound immunocomplexes were detected using ECL Plus chemiluminescent detection reagent (GE Healthcare, Piscataway, N.J.).

[14] = CXCL12 100 ng/mL, 5-30 min, Panc1 and MiaPaCa

Molecule: c1cc(CN2CCCNCCNCCCNCC2)ccc1CN1CCCNCCNCCCNCC1 [AMD3100, Plerixafor, reference compound]
effect on CXCL12-induced chemo-resistance (gemcitabine) [1]: abolished
effect on CXCL12-induced growth promotion ([1]; pre-treatment 1 h, AMD3100 5 μg/mL, then CXCL12): abolished
effect on CXCL12-induced activation of Akt pathway ([2]; pre-treatment 1 h (AMD3100 5 g/mL, LY294002 20 μM, PD98059 25 μM), 15 min post-CXCL12, Panc1 and MiaPaCa): inhibited
effect on CXCL12-induced activation of ERK pathway [3]: inhibited
side effects [4]: minimal side effects

Molecule: COc1cccc(-c2cc(=O)c3ccccc3o2)c1N [PD98059, reference compound]
effect on CXCL12-induced chemo-resistance (gemcitabine) [1]: significant negative impact
effect on CXCL12-induced activation of ERK pathway [3]: specifically inhibited

Molecule: Nc1ccn([C@@H]2O[C@H](CO)[C@@H](O)C2(F)F)c(=O)n1 [gemcitabine]
gemcitabine cytotoxicity [5]: 50.7%
gemcitabine cytotoxicity [6]: 52.3%

induction of transcriptional activity of NF-κB responsive promoter ([7]; MiaPaCa, CXCL12-treated): 2.26 fold
induction of transcriptional activity of NF-κB responsive promoter ([7]; Panc1, CXCL12-treated): 2.98 fold
Molecule: CXCL12: Recombinant human CXCL12, a ligand for CXCR4
resistance to gemcitabine-cytotoxicity ([1]; CXCL12 100 ng/mL, gemcitabine 0-10 μM, both cell lines, p<0.05): induced significant resistance
induction of growth ([1]; CXCL12 100 ng/ml, absence of serum growth factors, range over MiaPaCa and Panc1): 29-33%
increase of growth ([1]; CXCL12 100 ng/ml, presence of serum growth factors, range over MiaPaCa and Panc1): 11-13%
activation of Akt (phospho-form) [2, 14]: significant activation
activation of ERK (phospho-form) [3, 14]: significant activation
activation of FAK (phospho-form) [8]: significant activation
level of phospho-BAD [9]: increased level of phospho-BAD
expression of Bcl-2, Bcl-xL, Notch-1 and survivin proteins [10]: significantly induced
DNA fragmentation [11]: reduced DNA fragmentation
activity of caspases [12]: enhanced activity of caspases
expression of SHH [13]: induced expression of SHH
